Results from ChEMBL document CHEMBL1128489, “Novel hexakis(areneisonitrile)technetium(I) complexes as radioligands targeted to the multidrug resistance P-glycoprotein” (J Med Chem, 1995).

Legend:
Conditions in all cases: in vivo, 0.5 h
Rattus norvegicus [1] = assay: Biodistribution values represent the mean % id/organ for paired rats 30 min post intravenous injection complex in Adrenal; format: ADME, organism-based
Rattus norvegicus [2] = assay: Biodistribution values represent the mean % id/organ for paired rats 30 min post intravenous injection complex in Liver; format: ADME, organism-based
Rattus norvegicus [3] = assay: Biodistribution values represent the mean % id/organ for paired rats 30 min post intravenous injection complex in Heart; format: ADME, organism-based
Rattus norvegicus [4] = assay: Biodistribution values represent the mean % id/organ for paired rats 30 min post intravenous injection complex in Skin; format: ADME, organism-based
Rattus norvegicus [5] = assay: Biodistribution values represent the mean % id/organ for paired rats 30 min post intravenous injection complex in Bone; format: ADME, organism-based, Bone element
Rattus norvegicus [6] = assay: Biodistribution values represent the mean % id/organ for paired rats 30 min post intravenous injection complex in Fat; format: ADME, organism-based
Rattus norvegicus [7] = assay: Biodistribution values represent the mean % id/organ for paired rats 30 min post intravenous injection complex in Brain; format: ADME, organism-based
Rattus norvegicus [8] = assay: Biodistribution values represent the mean % id/organ for paired rats 30 min post intravenous injection complex in Kidney; format: ADME, organism-based
Rattus norvegicus [9] = assay: Biodistribution values represent the mean % id/organ for paired rats 30 min post intravenous injection complex in Lungs; format: ADME, organism-based, Lung
Rattus norvegicus [10] = assay: Biodistribution values represent the mean % id/organ for paired rats 30 min post intravenous injection complex in Spleen; format: ADME, organism-based
Rattus norvegicus [11] = assay: Biodistribution values represent the mean % id/organ for paired rats 30 min post intravenous injection complex in Muscles; format: ADME, organism-based, Muscle tissue
Rattus norvegicus [12] = assay: Biodistribution values represent the mean % id/organ for paired rats 30 min post intravenous injection complex in Blood; format: ADME, organism-based
Rattus norvegicus [13] = assay: Biodistribution values represent the mean % id/organ for paired rats 30 min post intravenous injection complex in GI; format: ADME, organism-based

Row | Substance | ID/organ (Rattus norvegicus [1]) [%] | ID/organ (Rattus norvegicus [2]) [%] | ID/organ (Rattus norvegicus [3]) [%] | ID/organ (Rattus norvegicus [4]) [%] | ID/organ (Rattus norvegicus [5]) [%] | ID/organ (Rattus norvegicus [6]) [%] | ID/organ (Rattus norvegicus [7]) [%] | ID/organ (Rattus norvegicus [8]) [%] | ID/organ (Rattus norvegicus [9]) [%] | ID/organ (Rattus norvegicus [10]) [%] | ID/organ (Rattus norvegicus [11]) [%] | ID/organ (Rattus norvegicus [12]) [%] | ID/organ (Rattus norvegicus [13]) [%]
1 | Hexakis[3,4-(Methylenedioxy)-alpha-tolueneisonitrile]technetium Complex | 0.07 | 73.8 | 0.15 | 0.6 | 4.29 | 0.26 | 0.01 | 0.61 | 3.04 | 2.78 | 3.9 | 4.19 | 5.75
2 | Hexakis[3-Nitrobenzeneisonitrile]technetium Complex | 0.01 | 13.8 | 0.17 | 5.3 | 5.74 | 0.51 | 0.03 | 5.21 | 0.37 | 0.28 | 7.61 | 9.44 | 42.9
3 | Hexakis[2-(3,4,5-Trimethoxyphenyl)ethaneisonitrile]technetium Complex | 0.12 | 44.2 | 0.38 | 1.33 | 5.11 | 0.19 | 0.01 | 10 | 0.43 | 1.5 | 4.84 | 0.93 | 24.5
4 | Hexakis[4-Nitrobenzeneisonitrile]technetium Complex | 0.03 | 38 | 0.33 | 3.65 | 8.79 | 1.26 | 0.06 | 4.84 | 1.06 | 1.12 | 6.87 | 19.2 | 10.1
5 | Hexakis-(2-methoxyisobutylisonitrile)Technetium (99mTc-MIBI) | 0.16 | 10.8 | 2.36 | 3.95 | 11 | 0.73 | 0.05 | 6.26 | 0.71 | 0.6 | 18.5 | 0.33 | 30.3
6 | Hexakis[3,4-(Methylenedioxy)benzeneisonitrile]technetium Complex | 0.05 | 91.8 | 0.03 | 0.19 | 4.73 | 0.08 | 0.01 | 0.12 | 2.62 | 1.82 | 0.47 | 1.45 | 0.38
7 | Hexakis[3,4,5-Trimethoxy-alpha-tolueneisonitrile]technetium Complex | 0.04 | 39.2 | 0.17 | 0.76 | 2.29 | 0.17 | 0.01 | 3.83 | 0.61 | 0.13 | 3.02 | 0.59 | 65.1
8 | Hexakis[4-Cyanobenzeneisonitrile]technetium Complex | 0.03 | 75.7 | 0.13 | 1.23 | 4.9 | 0.37 | 0.03 | 1.23 | 2.2 | 2.47 | 3.84 | 9.89 | 2.99
9 | Hexakis[2-(4-Methoxyphenyl)ethaneisonitrile]technetium Complex | 0.03 | 81.1 | 0.15 | 0.41 | 3.44 | 0.26 | 0 | 0.19 | 3.93 | 2.94 | 1.99 | 0.79 | 1.86
10 | Hexakis[3,4-Dimethoxy-alpha-tolueneisonitrile]technetium Complex | 0.07 | 44.2 | 0.1 | 1.35 | 4.72 | 0.21 | 0.02 | 2.25 | 1.22 | 0.34 | 2.48 | 3.27 | 33.5
11 | Hexakis[4-Methoxy-alpha-tolueneisonitrile]technetium Complex | 0.03 | 85.6 | 0.08 | 0.58 | 2.73 | 0.24 | 0.02 | 0.45 | 1.31 | 2.45 | 1.92 | 4.56 | 3.31
12 | Hexakis[3-Acetamidobenzeneisonitrile]technetium Complex | 0.02 | 86.9 | 0.03 | 0.17 | 3.48 | 0.03 | 0.01 | 0.38 | 1.45 | 1.5 | 0.53 | 0.87 | 2.12
13 | Hexakis[5-Methoxy-2-methyl-4-nitrobenzeneisonitrile]technetium Complex | 0.03 | 71.9 | 0.14 | 0.77 | 5.59 | 0.32 | 0.03 | 1.13 | 0.72 | 3.05 | 1.28 | 6.88 | 3.96
14 | Hexakis[3,5-Dimethoxybenzeneisonitrile]technetium Complex | 0 | 92.5 | 0.03 | 0.26 | 1.53 | 0.11 | 0.01 | 0.49 | 1.83 | 2.25 | 0.74 | 0.5 | 3.12
15 | Hexakis[3-(hydroxymethyl)benzeneisonitrile]technetium Complex | 0.05 | 62.2 | 0.12 | 0.62 | 3.6 | 0.2 | 0.01 | 2.98 | 0.63 | 1.85 | 2.99 | 3.39 | 13.8
16 | Hexakis[3,5-Dimethoxy-alpha-tolueneisonitrile]technetium Complex | 0.04 | 75.9 | 0.12 | 0.43 | 3.63 | 0.2 | 0.02 | 0.3 | 0.87 | 3.35 | 1.82 | 5.06 | 2.22
17 | Hexakis[3,4-Dimethoxybenzeneisonitrile]technetium Complex | 0.07 | 87.7 | 0.13 | 1.07 | 4.38 | 0.4 | 0.02 | 0.61 | 1.89 | 4.5 | 4.67 | 3.92 | 2.44
18 | Hexakis[2-Methoxy-5-nitrobenzeneisonitrile]technetium Complex | 0.04 | 32.5 | 0.35 | 2.88 | 9.58 | 0.55 | 0.04 | 2.74 | 0.51 | 1.25 | 6.82 | 14.1 | 19.4
19 | Hexakis[4-Acetylbenzeneisonitrile]technetium Complex | 0.06 | 92.7 | 0.03 | 0.7 | 4.27 | 0.07 | 0.01 | 0.66 | 1.73 | 2.28 | 0.68 | 1.13 | 3.15
